Several values for one entry are separate records, joined by “and”; a condition that tells them apart may be missing. Equal values may be shown once. One block for each compound: values may come before it.
How the values were obtained:
A549 cells = assay: PD assay (Assay 2): inhibition of nuclear symmetric Arginine dimethylation (SYM10 immunohistochemistry) in A549 cells; assay type: cell-based; conditions: Homo sapiens, A549, PD assay in A549 cells, individual measurements shown, read-out: pIC50 Assay 2 (converted)
How it was run: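 A549 cells dosed with a nine-point series (0.2% DMSO) for 48 h at 37° C, then fixed and immunostained with SYM10 anti-symmetric-dimethylarginine antibody, plus Hoechst and CellMask counterstains for high-content imaging. Nuclear signal normalized between DMSO and 10 μM reference-compound controls to derive IC50/pIC50.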

PRMT5-MEP50 enzyme = biological target: T1, PRMT5-MEP50 enzyme (Homo sapiens, UniProt O14744); assay: In vitro assay (Assay 1): PRMT5-MEP50 high throughput mass spectrometer assay, inhibition of SAH formation; assay type: biochemical; conditions: individual measurements shown; for IC50: read-out: pIC50 Assay 1 (converted)
T1 construct: One virus expresses full length human PRMT5 with Flag-tag at N-terminus
How it was run: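 Flag-PRMT5/His-MEP50 full-length human complex (Sf9-expressed), 10 nM, with 1 μM SAM and 0.3 μM histone H2A in 20 mM Tris-HCl pH 8.5, 50 mM NaCl, 5 mM MgCl2, 1 mM DTT; 60 min at 30 °C, quenched with 1% formic acid. SAH quantified by RapidFire MS; IC50 from 11-point 1:2 series fitted to four-parameter Hill equation.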

PRMT5 = PRMT5 (Homo sapiens, UniProt O14744); conditions: Chan-Penebre et al., Nat Chem Biol 2015; cited from earlier work
MCL xenograft models = conditions: multiple MCL xenograft models; Chan-Penebre et al., Nat Chem Biol 2015; cited from earlier work

T1 sequence (O14744 whole entry): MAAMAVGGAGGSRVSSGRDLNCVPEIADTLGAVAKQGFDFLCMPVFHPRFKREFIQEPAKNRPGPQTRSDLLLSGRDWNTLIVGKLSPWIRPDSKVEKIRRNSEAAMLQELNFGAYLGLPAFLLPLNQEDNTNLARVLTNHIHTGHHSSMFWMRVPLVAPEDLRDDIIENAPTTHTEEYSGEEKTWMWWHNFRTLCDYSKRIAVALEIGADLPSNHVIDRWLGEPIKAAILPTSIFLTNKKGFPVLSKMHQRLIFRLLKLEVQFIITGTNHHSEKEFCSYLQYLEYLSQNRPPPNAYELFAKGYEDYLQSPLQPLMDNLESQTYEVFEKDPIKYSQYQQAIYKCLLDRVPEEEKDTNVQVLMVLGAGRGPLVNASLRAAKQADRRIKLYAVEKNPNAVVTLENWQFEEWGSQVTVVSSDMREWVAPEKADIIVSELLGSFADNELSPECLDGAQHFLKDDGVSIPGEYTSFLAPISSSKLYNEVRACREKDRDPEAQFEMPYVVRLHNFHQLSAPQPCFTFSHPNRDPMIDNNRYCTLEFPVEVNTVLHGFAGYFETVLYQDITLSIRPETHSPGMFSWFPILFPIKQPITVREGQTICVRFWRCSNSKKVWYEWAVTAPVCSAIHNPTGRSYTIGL
T1 sequence (Q9BQA1 whole entry partner): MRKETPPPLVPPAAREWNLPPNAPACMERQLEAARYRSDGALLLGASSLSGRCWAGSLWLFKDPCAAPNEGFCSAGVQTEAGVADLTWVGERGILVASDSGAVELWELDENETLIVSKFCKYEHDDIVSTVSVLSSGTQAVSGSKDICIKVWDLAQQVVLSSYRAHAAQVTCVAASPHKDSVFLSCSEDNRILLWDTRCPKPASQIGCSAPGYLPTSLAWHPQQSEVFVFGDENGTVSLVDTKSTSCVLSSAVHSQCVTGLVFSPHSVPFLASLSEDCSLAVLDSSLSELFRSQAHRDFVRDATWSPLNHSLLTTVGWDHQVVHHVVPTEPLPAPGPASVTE
PRMT5, sequence (O14744 whole entry, species assumed): as the sequence (O14744 whole entry) above
PRMT5, sequence (Q9BQA1 whole entry partner, species assumed): as the sequence (Q9BQA1 whole entry partner) above

IC50 (A549 cells): 66.1 nM | IC50 (PRMT5-MEP50 enzyme): 19.5 nM
SMILES: CN1CCC2(CC1)CC(F)(F)CN2C[C@H]1O[C@@H](n2ccc3c(N)ncnc32)[C@H](O)[C@@H]1O [Compound 181]

IC50 (A549 cells): 501 nM | IC50 (PRMT5-MEP50 enzyme): 15.5 nM
SMILES: CCN1CCC2(CC1)CC(F)(F)CN2C[C@H]1O[C@@H](n2ccc3c(N)ncnc32)[C@H](O)[C@@H]1O [Compound 182]

IC50 (A549 cells): ~240 nM | IC50 (PRMT5-MEP50 enzyme): 22.4 nM
SMILES: Nc1ncnc2c1ccn2[C@@H]1O[C@H](CN2CC(F)(F)CC23CCN(CCc2ccc(F)cc2)CC3)[C@@H](O)[C@H]1O [Compound 183]

IC50 (A549 cells): ~1480 nM | IC50 (PRMT5-MEP50 enzyme): 67.6 nM
SMILES: CC(C)CCN1CCC2(CC1)CC(F)(F)CN2C[C@H]1O[C@@H](n2ccc3c(N)ncnc32)[C@H](O)[C@@H]1O [Compound 184]

IC50 (A549 cells): 589 nM | IC50 (PRMT5-MEP50 enzyme): 25.1 nM
SMILES: Nc1ncnc2c1ccn2[C@@H]1O[C@H](CN2CC(F)(F)CC23CCN(CCC2CC2)CC3)[C@@H](O)[C@H]1O [Compound 185]

IC50 (A549 cells): 708 nM | IC50 (PRMT5-MEP50 enzyme): 372 nM
SMILES: CN1CCC2(CC1)CC(F)(F)CN2C[C@H]1O[C@@H](n2ccc3c(Cl)ncnc32)[C@H](O)[C@@H]1O [Compound 188]

IC50 (A549 cells): 468 nM | IC50 (PRMT5-MEP50 enzyme): 186 nM
SMILES: N#CCCN1CCC2(CCCN2C[C@H]2O[C@@H](n3ccc4c(N)ncnc43)[C@H](O)[C@@H]2O)CC1 [Compound 193]

IC50 (A549 cells): ~5620 nM | IC50 (PRMT5-MEP50 enzyme): 427 nM
SMILES: COCCN1CCC2(CCCN2C[C@H]2O[C@@H](n3ccc4c(N)ncnc43)[C@H](O)[C@@H]2O)CC1 [Compound 194]

IC50 (A549 cells): 3240 nM | IC50 (PRMT5-MEP50 enzyme): 1150 nM
SMILES: Nc1ncnc2c1ccn2[C@@H]1O[C@H](CN2CCCC23CCN(CC(F)F)CC3)[C@@H](O)[C@H]1O [Compound 196]

IC50 (A549 cells): ~4680 nM | IC50 (PRMT5-MEP50 enzyme): 2000 nM
SMILES: Nc1ncnc2c1ccn2[C@@H]1O[C@H](CN2CCCC23CCN(CC(F)(F)F)CC3)[C@@H](O)[C@H]1O [Compound 202]

Second part, the compound before the results:

SMILES: Nc1ncnc2c1ccn2[C@@H]1O[C@H](CN2CCCC23CCN(Cc2nc4ccccc4[nH]2)CC3)[C@@H](O)[C@H]1O [Compound 177]
IC50 (A549 cells): 457 nM | IC50 (PRMT5-MEP50 enzyme): 191 nM

SMILES: CN1CCC2(CCCN2C[C@H]2O[C@@H](n3cc(F)c4c(N)ncnc43)[C@H](O)[C@@H]2O)CC1 [Compound 178]
IC50 (A549 cells): 120 nM | IC50 (PRMT5-MEP50 enzyme): 51.3 nM

SMILES: CN1CCC2(CCCN2C[C@H]2O[C@@H](n3cc(Br)c4c(N)ncnc43)[C@H](O)[C@@H]2O)CC1 [Compound 179]
IC50 (A549 cells): 95.5 nM | IC50 (PRMT5-MEP50 enzyme): 31.6 nM

SMILES: CN1CCC2(CCCN2C[C@H]2O[C@@H](n3cc(I)c4c(N)ncnc43)[C@H](O)[C@@H]2O)CC1 [Compound 180]
IC50 (A549 cells): 269 nM | IC50 (PRMT5-MEP50 enzyme): 10.2 nM

SMILES: CN1CCC2(CCCN(C[C@H]3O[C@@H](n4ccc5c(N)ncnc54)[C@H](O)[C@@H]3O)C2)C1 (stereo partly shown) [Compound 186]
IC50 (A549 cells): 617 nM | IC50 (PRMT5-MEP50 enzyme): 13.5 nM

SMILES: CN(C)CC[C@@H]1CCCN1C[C@H]1O[C@@H](n2ccc3c(N)ncnc32)[C@H](O)[C@@H]1O [Compound 187]
IC50 (A549 cells): 1700 nM | IC50 (PRMT5-MEP50 enzyme): 63.1 nM

SMILES: CN1CCC2(CCCN2C[C@H]2O[C@@H](n3cnc4cncnc43)[C@H](O)[C@@H]2O)CC1 [Compound 191]
IC50 (A549 cells): > 10000 nM | pIC50 Assay 1 (PRMT5-MEP50 enzyme): 5.04

SMILES: N#CCN1CCC2(CCCN2C[C@H]2O[C@@H](n3ccc4c(N)ncnc43)[C@H](O)[C@@H]2O)CC1 [Compound 192]
IC50 (A549 cells): 83.2 nM | IC50 (PRMT5-MEP50 enzyme): 69.2 nM

SMILES: CNC(=O)CCN1CCC2(CCCN2C[C@H]2O[C@@H](n3ccc4c(N)ncnc43)[C@H](O)[C@@H]2O)CC1 [Compound 195]
IC50 (A549 cells): > 10000 nM | IC50 (PRMT5-MEP50 enzyme): 537 nM

SMILES: CNC(=O)CN1CCC2(CCCN2C[C@H]2O[C@@H](n3ccc4c(N)ncnc43)[C@H](O)[C@@H]2O)CC1 [Compound 197]
IC50 (A549 cells): > 10000 nM | IC50 (PRMT5-MEP50 enzyme): 6460 nM

SMILES: Nc1ncnc2c1ccn2[C@@H]1O[C@H](CN2CCCC23CCN(C2COC2)CC3)[C@@H](O)[C@H]1O [Compound 198]
IC50 (A549 cells): ~1100 nM | IC50 (PRMT5-MEP50 enzyme): 437 nM

SMILES: Nc1ncnc2c1ccn2[C@@H]1O[C@H](CN2CCCC23CCN(Cc2cccnn2)CC3)[C@@H](O)[C@H]1O [Compound 199]
IC50 (A549 cells): 1860 nM | IC50 (PRMT5-MEP50 enzyme): 891 nM

SMILES: Nc1ncnc2c1ccn2[C@@H]1O[C@H](CN2CCCC23CCN(Cc2nccs2)CC3)[C@@H](O)[C@H]1O [Compound 200]
IC50 (A549 cells): > 10000 nM | IC50 (PRMT5-MEP50 enzyme): 4790 nM

SMILES: Nc1ncnc2c1ccn2[C@@H]1O[C@H](CN2CCCC23CCN(CC2OCCc4ccccc42)CC3)[C@@H](O)[C@H]1O (stereo partly shown) [Compound 201]
IC50 (A549 cells): ~10200 nM | IC50 (PRMT5-MEP50 enzyme): 457 nM

SMILES: CN1CCC2(CCCN2C[C@H]2O[C@@H](n3ccc4c(NCc5ccc(F)cc5)ncnc43)[C@H](O)[C@@H]2O)CC1 [Compound 203]
IC50 (A549 cells): 661 nM | IC50 (PRMT5-MEP50 enzyme): 209 nM

SMILES: CN1CCC2(CCCN2C[C@H]2O[C@@H](n3ccc4c(NCCc5ccc(F)cc5)ncnc43)[C@H](O)[C@@H]2O)CC1 [Compound 204]
IC50 (A549 cells): 1380 nM | IC50 (PRMT5-MEP50 enzyme): 372 nM

SMILES: CCNc1ncnc2c1ccn2[C@@H]1O[C@H](CN2CCCC23CCN(C)CC3)[C@@H](O)[C@H]1O [Compound 205]
IC50 (A549 cells): 7080 nM | IC50 (PRMT5-MEP50 enzyme): 1620 nM

SMILES: CN1CCC2(CCC=C2C[C@H]2C[C@@H](n3ccc4c(N)ncnc43)[C@H](O)[C@@H]2O)CC1 [Compound 206]
IC50 (A549 cells): 64.6 nM | IC50 (PRMT5-MEP50 enzyme): 5.13 nM

SMILES: CN1CCC2(CCC/C2=C\[C@H]2C[C@@H](n3ccc4c(N)ncnc43)[C@H](O)[C@@H]2O)CC1 [Compound 207]
IC50 (A549 cells): 52.5 nM | IC50 (PRMT5-MEP50 enzyme): 5.01 nM

SMILES: CN1CCC2(CCCN2C[C@H]2O[C@@H](n3ccc4c(Cl)ncnc43)[C@H](O)[C@@H]2O)CC1 [Compound 208]
IC50 (A549 cells): 490 nM | IC50 (PRMT5-MEP50 enzyme): 75.9 nM

SMILES: O[C@@H]1[C@H](O)[C@@H](CN2CCCC23CCNCC3)O[C@H]1n1cnc2c(NC3CC3)ncnc21 [Compound 270]
IC50 (A549 cells): > 10000 nM | IC50 (PRMT5-MEP50 enzyme): 4680 nM and 4270 nM and 3470 nM

SMILES: O=C(NC[C@H](O)CN1CCc2ccccc2C1)c1cc(NC2COC2)ncn1 [EPZ015666]
potency as PRMT5 inhibitor (PRMT5): sub-nanomolar potent | anti-tumour activity (MCL xenograft models): anti-tumour activity

— patent US10898504B2, “Substituted nucleoside analogues for use as PRMT5 inhibitors” (Janssen Pharmaceutica NV, priority 2016, dated 2021)
